Laboratory results reported in ChEMBL document CHEMBL1671772, “Predicting hERG activities of compounds from their 3D structures: development and evaluation of a global descriptors based QSAR model” (Eur J Med Chem, 2011).

Experiments:
[1] = target: T1, Voltage-gated inwardly rectifying potassium channel KCNH2 (Homo sapiens, UniProt Q12809)
[2] = target: T1, Voltage-gated inwardly rectifying potassium channel KCNH2; remark: listed apart in the source

T1 sequence (Q12809 whole entry): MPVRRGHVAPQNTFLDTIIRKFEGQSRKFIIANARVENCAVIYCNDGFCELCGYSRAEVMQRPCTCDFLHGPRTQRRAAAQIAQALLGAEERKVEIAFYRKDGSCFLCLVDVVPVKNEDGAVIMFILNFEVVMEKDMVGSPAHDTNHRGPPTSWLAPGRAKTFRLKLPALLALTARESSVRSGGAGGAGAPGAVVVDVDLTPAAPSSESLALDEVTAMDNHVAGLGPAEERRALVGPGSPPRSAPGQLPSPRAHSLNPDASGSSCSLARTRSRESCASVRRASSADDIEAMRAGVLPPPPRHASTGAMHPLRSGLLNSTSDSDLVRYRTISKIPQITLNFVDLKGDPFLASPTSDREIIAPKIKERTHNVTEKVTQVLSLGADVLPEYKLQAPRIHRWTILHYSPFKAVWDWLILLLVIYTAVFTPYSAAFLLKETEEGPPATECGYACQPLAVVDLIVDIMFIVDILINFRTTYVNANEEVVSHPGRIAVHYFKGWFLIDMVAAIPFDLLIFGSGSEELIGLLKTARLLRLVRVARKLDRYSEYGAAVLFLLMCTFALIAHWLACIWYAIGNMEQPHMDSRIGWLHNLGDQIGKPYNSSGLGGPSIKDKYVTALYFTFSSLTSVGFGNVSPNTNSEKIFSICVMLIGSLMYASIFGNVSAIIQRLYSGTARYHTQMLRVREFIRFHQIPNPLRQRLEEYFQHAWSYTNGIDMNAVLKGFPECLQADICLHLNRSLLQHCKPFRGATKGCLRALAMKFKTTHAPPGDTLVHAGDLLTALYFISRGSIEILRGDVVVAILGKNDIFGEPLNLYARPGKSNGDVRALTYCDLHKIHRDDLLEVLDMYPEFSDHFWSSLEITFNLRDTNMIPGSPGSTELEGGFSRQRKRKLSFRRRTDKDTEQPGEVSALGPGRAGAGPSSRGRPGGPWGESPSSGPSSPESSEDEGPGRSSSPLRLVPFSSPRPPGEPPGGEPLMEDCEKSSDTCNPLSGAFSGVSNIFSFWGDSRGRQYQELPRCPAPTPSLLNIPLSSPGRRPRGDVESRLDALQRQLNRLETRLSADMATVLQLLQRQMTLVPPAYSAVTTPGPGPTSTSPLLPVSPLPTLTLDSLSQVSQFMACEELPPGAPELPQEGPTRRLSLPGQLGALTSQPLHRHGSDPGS

Structure (SMILES) | IC50 [1] [µM] | pIC50 [2]
CCCC(C)C1(CC)C(=O)NC(=O)NC1=O (stereo not drawn) [PENTOBARBITAL] | 132 | –
O=C(OC1CC2CC3CC(C1)N2CC3O)c1c[nH]c2ccccc12 (stereo not drawn) [MDL-74156] | 12 | –
CCCCc1oc2ccc(NS(C)(=O)=O)cc2c1C(=O)c1ccc(OCCCN(CCCC)CCCC)cc1 [DRONEDARONE] | 0.316 | –
COC(=O)C1=C(C)NC(C)=C(C(=O)OC(C)C)C1c1cccc2nonc12 (stereo not drawn) [ISRADIPINE] | 50.1 | –
CCC(=O)O[C@@](Cc1ccccc1)(c1ccccc1)[C@@H](C)CN(C)C [LEVOPROPOXYPHENE] | 2.75 | –
CCc1cn(-c2ccc(F)cc2)c2ccc(Cl)cc12 | – | 2.46
O=C1NCCN1CCN1CCC(c2cn(-c3ccc(F)cc3)c3ccccc23)CC1 | 0.00692 | –
Cc1cc2c(s1)Nc1ccccc1N=C2N1CCN(C)CC1 [OLANZAPINE] | 0.204 | –
CC(C)(CN1CCC(=C2c3ccc(F)cc3COc3ccccc32)CC1)C(=O)O | 10 | –
Cc1cn2c(N)c(Cl)cc(C(=O)NCC3CCN(CC(C)C)CC3)c2n1 | 2.57 | –
CCCc1cn(-c2ccc(F)cc2)c2ccc(Cl)cc12 | – | 1.59
CC1=C2C3OC(=O)C(C)C3C(O)CC2(C)C=CC1=O (stereo not drawn) | 110 | –
O=C(NCCN1CCOCC1)c1ccc(Cl)cc1 [MOCLOBEMIDE] | 79.4 | –
COc1ccc2cc3[n+](cc2c1OC)CCc1cc2c(cc1-3)OCO2 [BERBERINE] | 66.1 | –
CCCN1C[C@H](CSC)C[C@@H]2c3cccc4[nH]cc(c34)C[C@H]21 [PERGOLIDE] | 0.12 | –
CC(C(O)c1ccc(O)cc1)N1CCC(Cc2ccccc2)CC1 (stereo not drawn) [IFENPRODIL] | 0.1 | –
COc1ccc(CC(=O)Nc2cc3c(cc2[N+](=O)[O-])OC(C)(C)[C@H](O)[C@H]3NC2CC2)cc1 | 43.7 | –
CCC1OC(=O)C(C)C(OC2CC(C)(OC)C(O)C(C)O2)C(C)C(OC2OC(C)CC(N(C)C)C2O)C(C)(OC)CC(C)C(=O)C(C)C(O)C1(C)O (stereo not drawn) | 33.1 | –
COC(=O)[C@@H]1[C@H]2CC[C@@H](C[C@@H]1O)N2C | 417 | –
O=C1NCCN1CCN1CCC(c2cn(C3CCCCC3)c3ccc(Cl)cc23)CC1 | 0.138 | –

Structure (SMILES) | IC50 [1] [µM] | pIC50 [2]
Fc1ccc(-n2cc(C3CCNCC3)c3cc(Cl)ccc32)cc1 | 0.204 | –
CCCCCCCN(CC)CCCCc1ccc([N+](=O)[O-])cc1 | 0.00219 | –
COc1ccc(Cc2nccc3cc(OC)c(OC)cc23)cc1OC [PAPAVERINE] | 7.24 | –
CCOc1cc(N)c(Cl)cc1C(=O)NCC1CN(Cc2ccc(F)cc2)CCO1 (stereo not drawn) [MOSAPRIDE] | 4.79 | –
COc1cc(N)c(Cl)cc1C(=O)NC1CCN(Cc2ccccc2)CC1 [CLEBOPRIDE] | 0.603 | –
CN1C2CCC1C(C(=O)O)C(OC(=O)c1ccccc1)C2 (stereo not drawn) | 3980 | –
CN1CC(=O)N2[C@H](c3ccc4c(c3)OCO4)c3[nH]c4ccccc4c3C[C@@H]2C1=O | 100 | –
CCNCCc1cccc(C(F)(F)F)c1 | 537 | –
CCCC1NC(C)C2C(=O)N=C(c3cc(S(=O)(=O)N4CCN(CC)CC4)ccc3OCC)NN12 (stereo not drawn) | 12.9 | –
CCC1OC(=O)C(C)C(OC2CC(C)(OC)C(O)C(C)O2)C(C)C(OC2OC(C)CC(N(C)C)C2O)C(C)(O)CC(C)/C(=N/OCOCCOC)C(C)C(O)C1(C)O (stereo not drawn) | 36.3 | –
CC(O)c1cn(-c2ccc(F)cc2)c2ccc(Cl)cc12 (stereo not drawn) | – | 2.34
CC(C)c1cn(-c2ccc(F)cc2)c2ccc(Cl)cc12 | 10 | –
c1ccc(-c2[nH]c3ccccc3c2C2CC3CCC(C2)N3c2ccccc2)cc1 (stereo not drawn) | 0.0178 | –
CC(=O)NC(=O)C1CCC(C2N=CC(c3cccc(Br)c3)=N2)CC1 (stereo not drawn) | 0.501 | –
NC(=O)N1c2ccccc2C=Cc2ccccc21 [CARBAMAZEPINE] | 105 | –
COC(=O)C1=CCC2CCC1N2C (stereo in doubt; 21) | 8.91 | –
CCCCN1CCCC[C@H]1C(=O)Nc1c(C)cccc1C [LEVOBUPIVACAINE] | 20.9 | –
CCOP(=O)(Sc1ccccc1)Sc1ccccc1 [EDIFENPHOS] | 50.1 | –
CCC(=O)c1cn(-c2ccc(F)cc2)c2ccc(Cl)cc12 | – | 2.7
CC(=O)c1cn(-c2ccc(F)cc2)c2ccc(Cl)cc12 | 10 | –

Structure (SMILES) | IC50 [1] [µM] | pIC50 [2]
O=C1NCCN1CCN1CC=C(c2cn(-c3ccc(F)cc3)c3ccc(Cl)cc23)CC1 | 0.01 | –
CCC(O)(CC)c1cn(-c2ccc(F)cc2)c2ccc(Cl)cc12 | 15.8 | –
O=C1NCCN1CCN1CCC(C2CN(c3ccc(F)cc3)c3ccccc32)CC1 (stereo not drawn) | 0.0234 | –
CC(C)(C)c1ccc2c(ccn2-c2ccc(F)cc2)c1 | 10 | –
CO[C@@H]1[C@@H](O[C@@H]2O[C@H](C)[C@@H](O[C@H]3C[C@@](C)(O)[C@@H](OC(=O)CC(C)C)[C@H](C)O3)[C@H](N(C)C)[C@H]2O)[C@@H](CC=O)C[C@@H](C)[C@@H](O)/C=C\C=C\C[C@@H](C)OC(=O)C[C@H]1OC(C)=O | 102 | –
CN(C)CCCn1cc(C2=C(c3c[nH]c4ccccc34)C(=O)NC2=O)c2ccccc21 [GF-109203] | 1 | –
CCOC(=O)C1C(OC(=O)c2ccccc2)CC2CCC1N2C (stereo not drawn) | 1.2 | –
CCC(O)c1cn(-c2ccc(F)cc2)c2ccc(Cl)cc12 (stereo not drawn) | – | 2.66
COc1ccc(CC(=O)NCc2ccccc2-c2ccccc2C(=O)NCCc2cccnc2)cc1 | 10 | –
O=C1CCC(c2ccc(Nc3ccncc3)cc2)=NN1 [SENAZODAN] | 1.05 | –
Cc1cccc(C)c1NC(=O)C1CCCCN1C (stereo not drawn) [MEPIVACAINE] | 155 | –
Clc1ccccc1C(c1ccccc1)(c1ccccc1)n1ccnc1 [CLOTRIMAZOLE] | 3.02 | –
Fc1ccc(-n2cc(C3CCN(CCN4CCN=C4S)CC3)c3ccccc32)cc1 | 0.00617 | –
COC(=O)C1=CCC2CCC1N2C (stereo in doubt; 41) | 170 | –
CC(C)(C)N1CCC(c2ccccc2)(c2ccccc2)CC1 [BUDIPINE] | 0.851 | –
CC(C)(C)c1ccc(NC(=O)N2CCN(c3ncccc3Cl)CC2)cc1 | 1 | –
Cc1cccc(C)c1OCC(C)N (stereo not drawn) [MEXILETINE] | 10 | –
O=C(OC1Cc2c(O)cc(O)cc2OC1c1cc(O)c(O)c(O)c1)c1cc(O)c(O)c(O)c1 (stereo not drawn) | 6.03 | –
